In patent US8785457B2 (Cellzome Limited, priority 2009, dated 2014) one finds IC50 data, which are given here for 30 compounds.

The target in the first assay is T1, DNA-dependent protein kinase (DNA-PK) (Homo sapiens, UniProt P78527).
T1 construct: endogenous in cells; host or cells: Jurkat, clone E6-1 (ATCC TIB-152) cell lysate
T1 sequence (P78527 whole entry): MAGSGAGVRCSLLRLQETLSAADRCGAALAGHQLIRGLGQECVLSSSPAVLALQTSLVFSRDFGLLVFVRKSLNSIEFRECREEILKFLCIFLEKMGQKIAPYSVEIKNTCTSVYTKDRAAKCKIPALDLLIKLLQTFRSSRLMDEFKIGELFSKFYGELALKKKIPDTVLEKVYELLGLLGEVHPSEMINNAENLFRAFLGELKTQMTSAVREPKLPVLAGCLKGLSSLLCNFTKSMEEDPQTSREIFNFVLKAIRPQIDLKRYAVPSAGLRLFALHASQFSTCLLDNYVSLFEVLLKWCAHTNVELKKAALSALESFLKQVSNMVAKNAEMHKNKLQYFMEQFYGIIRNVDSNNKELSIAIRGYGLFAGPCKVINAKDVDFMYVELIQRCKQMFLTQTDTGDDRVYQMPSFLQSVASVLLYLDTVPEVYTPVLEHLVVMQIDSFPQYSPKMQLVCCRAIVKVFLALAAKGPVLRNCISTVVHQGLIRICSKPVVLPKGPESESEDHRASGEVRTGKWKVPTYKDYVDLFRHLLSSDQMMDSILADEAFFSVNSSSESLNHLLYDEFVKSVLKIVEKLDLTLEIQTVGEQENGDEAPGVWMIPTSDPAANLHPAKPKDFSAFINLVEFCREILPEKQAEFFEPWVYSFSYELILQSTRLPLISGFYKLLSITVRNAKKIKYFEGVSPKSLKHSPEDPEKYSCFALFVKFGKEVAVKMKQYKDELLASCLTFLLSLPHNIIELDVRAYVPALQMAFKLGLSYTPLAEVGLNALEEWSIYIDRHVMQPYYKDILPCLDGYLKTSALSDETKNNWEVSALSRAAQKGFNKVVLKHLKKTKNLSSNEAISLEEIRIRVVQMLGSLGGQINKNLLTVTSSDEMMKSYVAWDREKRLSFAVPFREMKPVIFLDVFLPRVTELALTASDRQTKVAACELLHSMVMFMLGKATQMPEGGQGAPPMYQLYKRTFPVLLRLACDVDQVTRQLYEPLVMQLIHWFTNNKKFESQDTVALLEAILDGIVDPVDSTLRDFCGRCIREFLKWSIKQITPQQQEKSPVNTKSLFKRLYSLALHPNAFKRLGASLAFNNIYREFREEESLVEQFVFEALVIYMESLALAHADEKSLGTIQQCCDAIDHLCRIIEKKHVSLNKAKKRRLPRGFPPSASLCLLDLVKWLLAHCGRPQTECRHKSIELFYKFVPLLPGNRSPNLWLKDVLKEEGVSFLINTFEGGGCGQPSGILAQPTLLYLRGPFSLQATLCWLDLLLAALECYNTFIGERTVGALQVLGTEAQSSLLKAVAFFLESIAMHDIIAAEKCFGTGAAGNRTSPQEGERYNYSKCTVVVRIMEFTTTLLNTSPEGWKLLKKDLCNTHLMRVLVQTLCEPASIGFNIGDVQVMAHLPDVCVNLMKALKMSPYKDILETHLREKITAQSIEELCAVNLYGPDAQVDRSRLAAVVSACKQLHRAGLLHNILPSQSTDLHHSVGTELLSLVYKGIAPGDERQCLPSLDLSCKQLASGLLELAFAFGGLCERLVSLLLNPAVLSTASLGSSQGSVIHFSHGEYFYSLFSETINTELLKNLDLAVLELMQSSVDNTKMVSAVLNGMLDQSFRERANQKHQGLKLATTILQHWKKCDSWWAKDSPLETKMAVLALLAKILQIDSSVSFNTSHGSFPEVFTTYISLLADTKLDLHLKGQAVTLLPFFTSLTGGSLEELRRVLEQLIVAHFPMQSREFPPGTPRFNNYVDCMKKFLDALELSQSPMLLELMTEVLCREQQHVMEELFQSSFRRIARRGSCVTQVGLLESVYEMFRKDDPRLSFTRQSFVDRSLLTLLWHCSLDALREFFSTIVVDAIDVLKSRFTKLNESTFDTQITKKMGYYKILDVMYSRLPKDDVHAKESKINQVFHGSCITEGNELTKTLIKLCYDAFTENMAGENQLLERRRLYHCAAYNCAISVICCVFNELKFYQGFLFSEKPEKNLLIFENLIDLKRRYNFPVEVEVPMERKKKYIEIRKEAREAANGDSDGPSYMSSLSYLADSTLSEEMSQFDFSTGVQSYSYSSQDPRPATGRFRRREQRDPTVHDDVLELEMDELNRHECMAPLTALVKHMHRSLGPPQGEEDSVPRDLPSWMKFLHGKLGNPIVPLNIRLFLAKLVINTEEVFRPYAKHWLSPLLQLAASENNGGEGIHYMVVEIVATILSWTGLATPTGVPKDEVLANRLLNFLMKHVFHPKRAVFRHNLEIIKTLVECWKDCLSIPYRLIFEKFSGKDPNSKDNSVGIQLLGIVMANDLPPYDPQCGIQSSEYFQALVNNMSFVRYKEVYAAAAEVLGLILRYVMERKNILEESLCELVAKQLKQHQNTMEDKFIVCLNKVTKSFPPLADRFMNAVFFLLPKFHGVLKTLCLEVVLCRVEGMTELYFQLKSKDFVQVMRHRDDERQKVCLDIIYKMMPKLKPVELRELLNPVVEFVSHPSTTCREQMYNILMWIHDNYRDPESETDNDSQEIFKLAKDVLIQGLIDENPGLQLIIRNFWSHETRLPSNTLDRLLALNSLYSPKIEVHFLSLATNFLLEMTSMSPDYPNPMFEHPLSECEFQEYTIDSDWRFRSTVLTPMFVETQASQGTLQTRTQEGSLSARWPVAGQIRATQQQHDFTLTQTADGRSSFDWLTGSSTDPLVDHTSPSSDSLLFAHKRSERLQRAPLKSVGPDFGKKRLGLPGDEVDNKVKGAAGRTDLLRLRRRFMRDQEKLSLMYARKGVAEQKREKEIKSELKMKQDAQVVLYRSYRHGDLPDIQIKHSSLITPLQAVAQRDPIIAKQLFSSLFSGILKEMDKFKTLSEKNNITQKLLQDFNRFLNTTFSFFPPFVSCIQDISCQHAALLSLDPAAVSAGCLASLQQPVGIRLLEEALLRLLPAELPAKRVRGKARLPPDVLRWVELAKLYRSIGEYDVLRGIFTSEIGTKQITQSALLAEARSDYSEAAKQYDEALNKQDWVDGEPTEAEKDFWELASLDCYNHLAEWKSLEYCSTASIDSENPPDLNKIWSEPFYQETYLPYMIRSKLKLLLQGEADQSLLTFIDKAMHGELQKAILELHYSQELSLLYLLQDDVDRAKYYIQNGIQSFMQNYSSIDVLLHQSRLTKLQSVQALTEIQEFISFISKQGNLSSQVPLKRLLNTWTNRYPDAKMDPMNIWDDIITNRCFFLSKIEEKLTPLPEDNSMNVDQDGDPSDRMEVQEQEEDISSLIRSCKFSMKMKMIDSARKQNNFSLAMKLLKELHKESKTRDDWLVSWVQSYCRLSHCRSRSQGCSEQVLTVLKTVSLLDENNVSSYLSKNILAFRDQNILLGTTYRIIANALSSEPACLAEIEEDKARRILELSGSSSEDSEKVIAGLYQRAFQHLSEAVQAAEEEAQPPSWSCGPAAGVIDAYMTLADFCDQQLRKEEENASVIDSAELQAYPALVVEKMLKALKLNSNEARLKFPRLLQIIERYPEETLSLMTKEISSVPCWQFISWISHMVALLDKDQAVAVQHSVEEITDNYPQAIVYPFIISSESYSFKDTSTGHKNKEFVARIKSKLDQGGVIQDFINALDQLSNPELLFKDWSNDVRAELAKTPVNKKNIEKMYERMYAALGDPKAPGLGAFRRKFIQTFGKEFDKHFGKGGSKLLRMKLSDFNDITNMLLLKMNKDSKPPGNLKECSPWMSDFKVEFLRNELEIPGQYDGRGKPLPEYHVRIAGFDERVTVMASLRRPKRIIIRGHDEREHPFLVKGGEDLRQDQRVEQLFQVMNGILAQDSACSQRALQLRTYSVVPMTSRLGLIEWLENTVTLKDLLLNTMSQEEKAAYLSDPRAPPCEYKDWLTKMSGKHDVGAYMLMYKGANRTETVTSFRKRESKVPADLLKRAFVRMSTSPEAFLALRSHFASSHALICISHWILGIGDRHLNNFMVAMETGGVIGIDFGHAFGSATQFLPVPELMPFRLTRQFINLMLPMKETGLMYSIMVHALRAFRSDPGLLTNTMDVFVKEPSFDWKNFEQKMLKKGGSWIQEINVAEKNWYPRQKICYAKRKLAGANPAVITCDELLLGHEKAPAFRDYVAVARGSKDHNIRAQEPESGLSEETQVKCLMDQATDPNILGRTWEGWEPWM
In words: kinobeads assay, DNA-PK. The settings on record: kinobeads assay, Table 4; read-out: Inhibition values (IC50) DNA-PK. The assay is classed as binding. In a few lines:
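Competitive binding in Jurkat cell lysate (5 mg/ml total protein): test compounds at various concentrations competed with beads bearing immobilized phenylmorpholin-chromen ligand. Bead-bound kinases were eluted and quantified by antibody dot blot with infrared detection; IC50 values came from dose-response curves.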
One may read the IC50 as the concentration that gives 50% inhibition. Take `CC(=O)N1CCc2c(nc(-c3ccc(NC(=O)NC4CC4)cc3)nc2N2CCOC[C@@H]2C)C1` [Example 62, (S)-1-(4-(7-acetyl-4-(3-methylmorpholino)-5,6,7,8-tetrahydropyrido[3,4-d]pyrimidin-2-yl)phenyl)-3-cyclopropylurea]: the half-inhibitory concentration (IC50) is above 10 µM.
Regarding `CCNC(=O)Nc1ccc(-c2nc3c(c(N4CCOC[C@@H]4C)n2)CN(C(=O)OC(C)(C)C)C3)cc1` [Example 1, (S)-tert-butyl 2-(4-(3-ethylureido)phenyl)-4-(3-methylmorpholino)-5H-pyrrolo[3,4-d]pyrimidine-6(7H)-carboxylate], the concentration for half-maximal inhibition (IC50) is above 10 µM.
As to `CCNC(=O)Nc1ccc(-c2nc3c(c(N4CCOC[C@@H]4C)n2)CCN(C(C)=O)C3)cc1` [Example 59, (S)-1-(4-(7-acetyl-4-(3-methylmorpholino)-5,6,7,8-tetrahydropyrido[3,4-d]pyrimidin-2-yl)phenyl)-3-ethylurea], the half-inhibitory concentration (IC50) was above 10 µM.

The same assay, now with this note: kinobeads assay, Table 6; read-out: Inhibition values (IC50) DNAPK.
With `CCNC(=O)Nc1ccc(-c2nc3c(c(N4CCOC[C@@H]4C)n2)CN(C(=O)OCC)CC3)cc1` [Example 107, (S)-ethyl 2-(4-(3-ethylureido)phenyl)-4-(3-methylmorpholino)-7,8-dihydropyrido[4,3-d]pyrimidine-6(5H)-carboxylate], the IC50 was above 10 µM.
With `CCOC(=O)N1Cc2nc(-c3ccc(NC(=O)NC4CC4)c(F)c3)nc(N3CCOC[C@@H]3C)c2C1` [Example 105, (S)-ethyl 2-(4-(3-cyclopropylureido)-3-fluorophenyl)-4-(3-methylmorpholino)-5H-pyrrolo[3,4-d]pyrimidine-6(7H)-carboxylate], the IC50 was above 10 µM.
Still for that read-out and setting: next, `CCNC(=O)Nc1ccc(-c2nc3c(c(N4CCOC[C@@H]4C)n2)CCN(C(=O)CO)C3)cc1` [Example 102, (S)-1-ethyl-3-(4-(7-(2-hydroxyacetyl)-4-(3-methylmorpholino)-5,6,7,8-tetrahydropyrido[3,4-d]pyrimidin-2-yl)phenyl)urea]: above 10 µM; `Cc1cc(NC(=O)Nc2ccc(-c3nc4c(c(N5CCOC[C@@H]5C)n3)CN(C)C4)cc2)no1` [Example 72, (S)-1-(4-(6-methyl-4-(3-methylmorpholino)-6,7-dihydro-5H-pyrrolo[3,4-d]pyrimidin-2-yl)phenyl)-3-(5-methylisoxazol-3-yl)urea]: above 10 µM; `C[C@H]1COCCN1c1nc(-c2ccc(NC(=O)Nc3ccn(C)n3)cc2)nc2c1CN(C)C2` [Example 84, (S)-1-(1-methyl-1H-pyrazol-3-yl)-3-(4-(6-methyl-4-(3-methylmorpholino)-6,7-dihydro-5H-pyrrolo[3,4-d]pyrimidin-2-yl)phenyl)urea]: above 10 µM.
Consider `CCNC(=O)Nc1cc(F)c(-c2nc3c(c(N4CCOC[C@@H]4C)n2)CCN(C)C3)cc1F` [Example 108, (S)-1-(2,5-difluoro-4-(7-methyl-4-(3-methylmorpholino)-5,6,7,8-tetrahydropyrido[3,4-d]pyrimidin-2-yl)phenyl)-3-ethylurea], for which the half-maximal inhibitory concentration (IC50) was above 10 µM.
With `C[C@H]1COCCN1c1nc(-c2ccc(NC(=O)NC3CC3)cc2)nc2c1CN(CC(F)(F)F)C2` [Example 101, (S)-1-cyclopropyl-3-(4-(4-(3-methylmorpholino)-6-(2,2,2-trifluoroethyl)-6,7-dihydro-5H-pyrrolo[3,4-d]pyrimidin-2-yl)phenyl)urea], the IC50 was above 10 µM.
Turning to `CCNC(=O)Nc1ccc(-c2nc3c(c(N4CCOC[C@@H]4C)n2)CN(CC(C)(C)C)C3)cc1` [Example 67, (S)-1-ethyl-3-(4-(4-(3-methylmorpholino)-6-neopentyl-6,7-dihydro-5H-pyrrolo[3,4-d]pyrimidin-2-yl)phenyl)urea], the IC50 is above 10 µM.
On to `CCNC(=O)Nc1ccc(-c2nc3c(c(N4CCOC[C@@H]4C)n2)CN(CC(F)(F)F)C3)cc1` [Example 68, (S)-1-ethyl-3-(4-(4-(3-methylmorpholino)-6-(2,2,2-trifluoroethyl)-6,7-dihydro-5H-pyrrolo[3,4-d]pyrimidin-2-yl)phenyl)urea], for which the IC50 is above 10 µM.
With `CCOC(=O)N1Cc2nc(-c3ccc(NC(=O)NCCO)c(F)c3)nc(N3CCOC[C@@H]3C)c2C1` [Example 104, (S)-ethyl-2-(3-fluoro-4-(3-(2-hydroxyethyl)ureido)phenyl)-4-(3-methylmorpholino)-5H-pyrrolo[3,4-d]pyrimidine-6(7H)-carboxylate], the IC50 is above 10 µM.
As to `CC(=O)N1CCc2c(nc(-c3ccc(NC(=O)NC4CC4)cc3)nc2N2CCOC[C@@H]2C)C1` [Example 62, (S)-1-(4-(7-acetyl-4-(3-methylmorpholino)-5,6,7,8-tetrahydropyrido[3,4-d]pyrimidin-2-yl)phenyl)-3-cyclopropylurea], the half-inhibitory concentration (IC50) is above 10 µM.
Regarding `CCNC(=O)Nc1ccc(-c2nc3c(c(N4CCOC[C@@H]4C)n2)CN(C(=O)OC(C)(C)C)C3)cc1` [Example 1, (S)-tert-butyl 2-(4-(3-ethylureido)phenyl)-4-(3-methylmorpholino)-5H-pyrrolo[3,4-d]pyrimidine-6(7H)-carboxylate], the concentration for half-maximal inhibition (IC50) was above 10 µM.
As for `CCNC(=O)Nc1ccc(-c2nc3c(c(N4CCOCC4)n2)CCN(C(=O)C(C)(C)C)C3)cc1` [Example 98, 1-ethyl-3-(4-(4-morpholino-7-pivaloyl-5,6,7,8-tetrahydropyrido[3,4-d]pyrimidin-2-yl)phenyl)urea], the IC50 is above 10 µM.
With `CCOC(=O)N1Cc2nc(-c3ccc(NC(=O)NCCF)cc3)nc(N3CCOC[C@@H]3C)c2C1` [Example 120, (S)-ethyl 2-(4-(3-(2-fluoroethyl)ureido)phenyl)-4-(3-methylmorpholino)-5H-pyrrolo[3,4-d]pyrimidine-6(7H)-carboxylate], the IC50 was above 10 µM.
In the case of `CC(C)CN1Cc2nc(-c3ccc(NC(=O)NC4CC4)cc3)nc(N3CCOC[C@@H]3C)c2C1` [Example 65, (S)-1-cyclopropyl-3-(4-(6-isobutyl-4-(3-methylmorpholino)-6,7-dihydro-5H-pyrrolo[3,4-d]pyrimidin-2-yl)phenyl)urea], the half-maximal inhibitory concentration (IC50) was above 10 µM.
Still for that read-out and setting: as for `CCNC(=O)Nc1ccc(-c2nc3c(c(N4CCOCC4)n2)CCN(C(=O)OCC)C3)cc1` [Example 96, ethyl 2-(4-(3-ethylureido)phenyl)-4-morpholino-5,6-dihydropyrido[3,4-d]pyrimidine-7(8H)-carboxylate], the figure is above 10 µM; as for `CCNC(=O)Nc1ccc(-c2nc3c(c(N4CCOCC4)n2)CN(C(=O)C(C)(C)C)C3)cc1` [Example 100, 1-ethyl-3-(4-(4-morpholino-6-pivaloyl-6,7-dihydro-5H-pyrrolo[3,4-d]pyrimidin-2-yl)phenyl)urea], above 10 µM; as for `CCNC(=O)Nc1ccc(-c2nc3c(c(N4CCOC[C@@H]4C)n2)CN(C2CCN(C(=O)OC)CC2)C3)cc1F` [Example 122, (S)-methyl 4-(2-(4-(3-ethylureido)-3-fluorophenyl)-4-(3-methylmorpholino)-5H-pyrrolo[3,4-d]pyrimidin-6(7H)-yl)piperidine-1-carboxylate], above 10 µM.
Same read-out and setting: as for `CCNC(=O)Nc1ccc(-c2nc3c(c(N4CCOCC4)n2)CCN(C(=O)NCC)C3)cc1` [Example 94, N-ethyl-2-(4-(3-ethylureido)phenyl)-4-morpholino-5,6-dihydropyrido[3,4-d]pyrimidine-7(8H)-carboxamide], the figure is above 10 µM; as for `CCNC(=O)Nc1ncc(-c2nc3c(c(N4CCOC[C@@H]4C)n2)CCN(C)C3)s1` [Example 106, (S)-1-ethyl-3-(5-(7-methyl-4-(3-methylmorpholino)-5,6,7,8-tetrahydropyrido[3,4-d]pyrimidin-2-yl)thiazol-2-yl)urea], above 10 µM; as for `CCNC(=O)Nc1ccc(-c2nc3c(c(N4CCOCC4)n2)CN(C)C3)cc1` [Example 69, 1-Ethyl-3-(4-(6-methyl-4-morpholino-6,7-dihydro-5H-pyrrolo[3,4-d]pyrimidin-2-yl)phenyl)urea], above 10 µM.
Take `CCNC(=O)Nc1ccc(-c2nc3c(c(N4CCOC[C@@H]4C)n2)CN(C(C)C)C3)cc1` [Example 74, (S)-1-ethyl-3-(4-(6-isopropyl-4-(3-methylmorpholino)-6,7-dihydro-5H-pyrrolo[3,4-d]pyrimidin-2-yl)phenyl)urea]: the concentration for half-maximal inhibition (IC50) is above 10 µM.
Turning to `CCNC(=O)Nc1ccc(-c2nc3c(c(N4CCOC[C@@H]4C)n2)CCN(C(C)=O)C3)cc1` [Example 59, (S)-1-(4-(7-acetyl-4-(3-methylmorpholino)-5,6,7,8-tetrahydropyrido[3,4-d]pyrimidin-2-yl)phenyl)-3-ethylurea], the IC50 was above 10 µM.
For `CCNC(=O)Nc1ccc(-c2nc3c(c(N4CCOC[C@@H]4C)n2)CCN(CC(C)C)C3)cc1.O=CO` [Example 76, (S)-1-ethyl-3-(4-(7-isobutyl-4-(3-methylmorpholino)-5,6,7,8-tetrahydropyrido[3,4-d]pyrimidin-2-yl)phenyl)urea formate], the 50% inhibitory concentration (IC50) is above 10 µM.
As to `C[C@H]1COCCN1c1nc(-c2ccc(NC(=O)NCCO)cc2)nc2c1CN(C)C2` [Example 73, (S)-1-(2-hydroxyethyl)-3-(4-(6-methyl-4-(3-methylmorpholino)-6,7-dihydro-5H-pyrrolo[3,4-d]pyrimidin-2-yl)phenyl)urea], the concentration for half-maximal inhibition (IC50) was above 10 µM.
On to `CCOC(=O)N1Cc2nc(-c3ccc(NC(=O)Nc4ccncc4)cc3)nc(N3CCOC[C@@H]3C)c2C1` [Example 121, (S)-ethyl 4-(3-methylmorpholino)-2-(4-(3-(pyridin-4-yl)ureido)phenyl)-5H-pyrrolo[3,4-d]pyrimidine-6(7H)-carboxylate], for which the 50% inhibitory concentration (IC50) is above 10 µM.
Turning to `C[C@H]1COCCN1c1nc(-c2ccc(NC(N)=O)cc2)nc2c1CN(C)C2` [Example 71, (S)-1-(4-(6-methyl-4-(3-methylmorpholino)-6,7-dihydro-5H-pyrrolo[3,4-d]pyrimidin-2-yl)phenyl)urea], the 50% inhibitory concentration (IC50) was above 10 µM.
For `CCNC(=O)Nc1ccc(-c2nc3c(c(N4CCOCC4)n2)CN(C(=O)OCC)C3)cc1` [Example 70, Ethyl 2-(4-(3-ethylureido)phenyl)-4-morpholino-5H-pyrrolo[3,4-d]pyrimidine-6(7H)-carboxylate], the IC50 fell in the range of 1 to 10 µM.
Still for that read-out and setting: as for `CCNC(=O)Nc1ccc(-c2nc3c(c(N4CCOCC4)n2)CCN(C(C)=O)C3)cc1` [Example 97, 1-(4-(7-acetyl-4-morpholino-5,6,7,8-tetrahydropyrido[3,4-d]pyrimidin-2-yl)phenyl)-3-ethylurea], the figure is 1 to 10 µM; as for `CCNC(=O)Nc1ccc(-c2nc3c(c(N4CCOCC4)n2)CCN(C)C3)cc1` [Example 93, 1-ethyl-3-(4-(7-methyl-4-morpholino-5,6,7,8-tetrahydropyrido[3,4-d]pyrimidin-2-yl)phenyl)urea], above 10 µM.
